Structures can show the parent of a compound that is named as a salt.
Target: Nicotinic acetylcholine receptor (Rattus leucopus, UniProt Q62594)
Sequence (Q62594 whole entry): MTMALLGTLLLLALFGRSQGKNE

CC(NC(C)(C)C)C(=O)c1cccc(Cl)c1 (stereo unspecified) [BUPROPION HYDROCHLORIDE]
Ki: > 10 µM
